{"source": "patent US20130331445A1", "about": "(Axelar AB, priority 2010, published 2013)", "key": {"[1]": {"system": "progressive non-small cell lung cancer (NSCLC)", "assay": "Phase I/II clinical trial in patients with progressive non-small cell lung cancer", "format": "in vivo", "protocol": "The patients were assessed with imaging at the start of the study and thereafter every two months."}, "[2]": {"assay": "Solubility in 1% sodium dodecyl sulfate (SDS) by LC-UV", "format": "physicochemical", "details": "aqueous with cosolvent or surfactant or cyclodextrin, thermodynamic from solid, 1% SDS, 24 hours rotation", "protocol": "The solubility was determined in different media by use of LC-UV chromatography. An excess amount of substance was weighed in vials and 0.5 ml of the medium was added. The substance was rotated in the specific medium at ambient temperature for 24 hours, followed by filtering the supernatant using a hydrophilic PVDF (Millipore Corp.) 0.22 μm filter. The samples were then diluted with a 1:1 mixture of mobile phase A and B (see below) and analyzed using an Xterra™ MS C18, 50×2.1 mm column with UV detection at 288 nm. The mobile phase consisted of acetonitrile, water and trifluoroacetic acid, 5:95:0.1(A) and 99:1:0.1(B)."}}, "data": [{"molecule": "COc1cc(C2c3cc4c(cc3C(O)[C@H]3COC(=O)[C@@H]23)OCO4)cc(OC)c1OC", "note": "(stereo partly drawn) [picropodophyllin monohydrate]", "values": [{"measurement": "patients with partial response according to RECIST criteria", "setting": "[1]; NSCLC patients, 390 or 520 mg twice-daily", "value": "one"}, {"measurement": "patients still alive at cut-off", "setting": "[1]; of ten NSCLC patients, 390 or 520 mg twice-daily", "value": "five"}, {"measurement": "patients with no detectable progression at cut-off", "setting": "[1]; of the five NSCLC patients still alive, 390 or 520 mg twice-daily", "value": "two"}, {"measurement": "median survival time", "setting": "[1]; ten NSCLC patients, 390 or 520 mg twice-daily monotherapy, at least two weeks, expected median survival less than 20 weeks", "value": 42, "unit": "weeks"}, {"measurement": "solubility at 24 h", "setting": "[2]; ambient temperature", "value": 210, "unit": "µg/mL"}, {"measurement": "solubility at 24 h", "setting": "[2]; corresponds to the mg/ml value", "value": 489, "unit": "µM"}]}]}
